In brackets after ≈: the same amount, converted by molar mass. Activity calls are given as the source filed them. No cut-off for these calls is given here.
Key:
[1] = system: HeLa; assay: Increase in NM_003607 mRNA expression in human HeLa cells by RTPCR; format: functional, cell-based
[2] = system: HeLa; assay: Increase in TRAIL-R2 protein level in human HeLa cells at 4 ug/ml after 24 hrs by Western blot; format: functional, cell-based
[3] = system: HeLa; assay: Cytotoxicity against human HeLa cells expressed as ratio of TRAIL-R2 gene expression in cells treated with drug at 5 ug/ml over control after 24 hrs; format: functional
[4] = system: DLD-1; assay: Upregulation of TRAIL-R2 protein in human DLD1/TRAIL-R cells at 4 ug/ml by Western blot; format: functional, cell-based
[5] = system: HeLa; assay: Cytotoxicity against human HeLa cells expressed as ratio of Cyr61 gene expression in cells treated with drug at 5 ug/ml over control after 24 hrs; format: functional
[6] = system: HeLa; assay: Reversal of drug-induced apoptosis in human HeLa cells expressing TRAIL-R2/Fc chimera protein after 12 hrs; format: functional, cell-based
[7] = system: HeLa; assay: Induction of apoptosis in human HeLa cells assessed as caspase 3 activity at 4 ug/ml; format: functional, cell-based; settings: TDE = time-dependent effect
[8] = system: HeLa; assay: Induction of apoptosis in human HeLa cells assessed as early apoptotic cells at 4 ug/ml after 24 hrs by annexin V-FITC/PI staining; format: functional
[9] = system: HeLa; assay: Cell viability in human HeLa cells at 4 ug/ml after 24 hrs in presence of TRAIL; format: functional
[10] = system: HeLa; assay: Induction of apoptosis in human HeLa cells assessed as accumulation at subG1 phase after 6 hrs by flow cytometry; format: functional
[11] = system: HeLa; assay: Increase in TRAIL-R2 protein level in human HeLa cells at 8 ug/ml after 24 hrs by Western blot; format: functional, cell-based
[12] = system: HeLa; assay: Induction of apoptosis in human HeLa cells assessed as accumulation at G2/M phase after 24 hrs by flow cytometry; format: functional
[13] = system: HeLa; assay: Induction of apoptosis in human HeLa cells assessed as accumulation at subG1 phase after 24 hrs by flow cytometry; format: functional
[14] = system: HeLa; assay: Induction of apoptosis in human HeLa cells assessed as accumulation at subG1 phase after 12 hrs by flow cytometry; format: functional
[15] = system: HeLa; assay: Increase in AF016266 mRNA expression in human HeLa cells by RTPCR; format: functional
[16] = system: HeLa; assay: Induction of apoptosis in human HeLa cells assessed as accumulation at S phase after 24 hrs by flow cytometry; format: functional
[17] = system: HeLa; assay: Induction of apoptosis in human HeLa cells assessed as cleavage of caspase 8 at 4 ug/ml after 6 hrs by Western blot; format: functional, cell-based
[18] = system: HeLa; assay: Induction of apoptosis in human HeLa cells assessed as accumulation at G1 phase after 12 hrs by flow cytometry; format: functional
[19] = system: DLD-1; assay: Cytotoxicity against human DLD1/TRAIL-R cells after 24 hrs; format: functional, cell-based; settings: DLD-1, 24 h
[20] = system: HeLa; assay: Cell viability in human HeLa cells at 4 ug/ml after 24 hrs; format: functional
[21] = system: HeLa; assay: Induction of apoptosis in human HeLa cells assessed as late apoptotic cells at 4 ug/ml after 24 hrs by annexin V-FITC and PI staining; format: functional
[22] = system: HeLa; assay: Induction of apoptosis in human HeLa cells assessed as accumulation at G1 phase after 6 hrs by flow cytometry; format: functional
[23] = system: HeLa; assay: Cytotoxicity against human HeLa cells expressed as ratio of RHAMM gene expression in cells treated with drug at 5 ug/ml over control after 24 hrs; format: functional
[24] = system: DLD-1; assay: Cell viability in human DLD1/TRAIL-R cells at 8 ug/ml after 24 hrs; format: functional
[25] = system: HeLa; assay: Induction of apoptosis in human HeLa cells assessed as accumulation at G2/M phase after 6 hrs by flow cytometry; format: functional
[26] = system: HeLa; assay: Induction of apoptosis in human HeLa cells assessed as cleavage of caspase 8 at 4 ug/ml after 12 hrs by Western blot; format: functional, cell-based
[27] = system: DLD-1; assay: Cell viability in human DLD1/TRAIL-R cells at 8 ug/ml after 24 hrs in presence of TRAIL; format: functional
[28] = system: HeLa; assay: Induction of apoptosis in human HeLa cells assessed as accumulation at S phase after 6 hrs by flow cytometry; format: functional
[29] = system: HeLa; assay: Induction of apoptosis in human HeLa cells assessed as accumulation at S phase after 12 hrs by flow cytometry; format: functional
[30] = system: HeLa; assay: Reversal of drug-induced apoptosis in human HeLa cells in presence of caspase 8 inhibitor z-IETD after 12 hrs by Annexin-PI dual staining; format: functional
[31] = system: HeLa; assay: Reversal of drug-induced apoptosis in human HeLa cells ain presence of caspase 9 inhibitor z-LEHD after 12 hrs by Annexin-PI dual staining; format: functional
[32] = system: HeLa; assay: Cytotoxicity against human HeLa cells after 24 hrs by FMCA; format: functional, cell-based
[33] = system: HeLa; assay: Induction of apoptosis in human HeLa cells assessed as early apoptotic cells at 4 ug/ml after 12 hrs by annexin V-FITC/PI staining; format: functional
[34] = system: HeLa; assay: Cytotoxicity against human HeLa cells expressed as ratio of MRCKalpha gene expression in cells treated with drug at 5 ug/ml over control after 24 hrs; format: functional
[35] = system: DLD-1; assay: Upregulation of TRAIL-R2 protein in human DLD1/TRAIL-R cells at 8 ug/ml by Western blot; format: functional, cell-based
[36] = system: HeLa; assay: Induction of apoptosis in human HeLa cells assessed as accumulation at G1 phase after 24 hrs by flow cytometry; format: functional
[37] = system: HeLa; assay: Induction of apoptosis in human HeLa cells assessed as accumulation at G2/M phase after 12 hrs by flow cytometry; format: functional

SMILES: Cc1cc(O)c2c(c1)[C@H](C(C)C)Cc1cc3c(cc1-2)[C@@H](O)[C@@H](C(C)C)c1cc(C)cc(O)c1-3 [PARVIFLORENE F]
- Activity [1]: Dose-dependent effect
- Activity [2]: Active
- Ratio [3]: 1.44
- Activity [4]: Active
- Ratio [5]: 0.61
- Activity [6]: Active
- Activity [7]: tde
- Activity [8]: 41.2%
- Activity [9]: 16%
- Activity [10]: 10.9%
- Activity [11]: Active
- Activity [12]: 15.3%
- Activity [13]: 26.1%
- Activity [14]: 31.5%
- Fold change [15]: 4.9
- Activity [16]: 5.5%
- Activity [17]: Active
- Activity [18]: 41.6%
- IC50 [19]: 9.2 µg/mL (≈ 20.8 µM)
- Activity [20]: 44%
- Activity [21]: 22.9%
- Activity [22]: 56.1%
- Ratio [23]: 0.68
- Activity [24]: 54%
- Activity [25]: 15.6%
- Activity [26]: inactive
- Activity [27]: 20%
- Activity [28]: 17.3%
- Activity [29]: 10.3%
- Activity [30]: 2.2%
- Activity [31]: 4%
- IC50 [32]: 4.3 µg/mL (≈ 9.72 µM)
- Activity [33]: 52.7%
- Ratio [34]: 1.71
- Activity [35]: Active
- Activity [36]: 52.1%
- Activity [37]: 16.6%

— ChEMBL document CHEMBL1143147, “A novel sesquiterpenoid dimer parviflorene F induces apoptosis by up-regulating the expression of TRAIL-R2 and a caspase-dependent mechanism” (Bioorg Med Chem, 2008)
